Source: patent publication US7772263B2, “Compounds for the treatment of inflammatory disorders” (Schering Corporation, priority 2006, dated 2010)

The molecules below were run against T1, purified catalytic domain of recombinant human TACE (rhTACEc) (Homo sapiens, UniProt P78536, N452Q/S266A) (assay: TACE kinetic assay, cleavage of internally quenched fluorescent peptide substrate SPDL-3). Details: Ki (nM), TACE inhibitory activity, rhTACEc 70 pM, 30 μM SPDL-3, 90 min pre-incubation at 25° C.
T1 construct: rhTACEc, Residue 215 to 477 with two mutation (S266A and N4520) and a 6×His tail; 6xHis (C); made in house; host or cells: baculovirus/Hi5 insect cells
T1 sequence (P78536 215-477 S266A/N452Q limits assumed): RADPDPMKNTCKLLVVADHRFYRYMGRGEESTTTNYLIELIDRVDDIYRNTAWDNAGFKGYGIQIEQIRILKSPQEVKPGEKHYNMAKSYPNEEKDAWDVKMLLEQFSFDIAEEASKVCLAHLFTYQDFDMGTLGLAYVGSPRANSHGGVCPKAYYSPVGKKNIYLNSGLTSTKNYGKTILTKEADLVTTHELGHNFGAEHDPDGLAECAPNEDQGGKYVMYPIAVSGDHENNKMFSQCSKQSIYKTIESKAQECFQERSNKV
Assay type: biochemical
`COc1ccc2c(c1)C(=O)N(C[C@@]1(C#Cc3ccc4[nH]ccc4c3)NC(=O)NC1=O)C2` [Compound 1129] showed a Ki of 0.17 nM.

Same assay, conditions: TACE inhibition, Table 1001; read-out: Ki Rating
In the case of `COc1ccc2c(c1)C(=O)N(C[C@@]1(C#Cc3c(C)n[nH]c3C)NC(=O)NC1=O)C2` [Compound 911], the Ki is reported as < 5 nM. For `COc1ccc2c(c1)C(=O)N(CC1(C#Cc3cccnc3)NC(=O)NC1=O)C2` (stereo not drawn) [Compound 312], the Ki was < 5 nM. For `COc1ccc2c(c1)C(=O)N(C[C@@]1(C#Cc3c(F)cc(F)cc3F)NC(=O)NC1=O)C2` [Compound 492], the Ki was < 5 nM. For `COc1ccc2c(c1)C(=O)N(C[C@@]1(C#Cc3ccc4nc(C)sc4c3)NC(=O)NC1=O)C2` [Compound 509], the Ki was < 5 nM. For `COc1ccc2c(c1)C(=O)N(C[C@@]1(C#Cc3ncnc4c3ncn4C(C)C)NC(=O)NC1=O)C2` [Compound 913], the Ki was < 5 nM. `COc1ccc2c(c1)C(=O)N(C[C@@]1(C#Cc3cn[nH]c3)NC(=O)NC1=O)C2` [Compound 900] was tested, and the Ki was < 5 nM. With `COc1ccc2c(c1)C(=O)N(C[C@@]1(C#Cc3cncc4ccc(C(N)=O)nc34)NC(=O)NC1=O)C2` [Compound 957] the Ki was < 5 nM. With `COC(=O)c1ccc2cncc(C#C[C@]3(CN4Cc5ccc(OC)cc5C4=O)NC(=O)NC3=O)c2n1` [Compound 956] the Ki was < 5 nM. `COc1ccc2c(c1)C(=O)N(C[C@@]1(C#Cc3cc(F)c(F)c(OC)c3)NC(=O)NC1=O)C2` [Compound 434] was tested, and the Ki was < 5 nM. For `COc1ccc2c(c1)C(=O)N(C[C@@]1(C#Cc3cc(C)ccc3F)NC(=O)NC1=O)C2` [Compound 497], the Ki was < 5 nM. With `O=C1NC(=O)[C@@](C#Cc2cc(F)cc(F)c2)(CN2Cc3ccc(Cl)cc3C2=O)N1` [Compound 1003B] the Ki was < 5 nM. With `COC(=O)c1ncccc1C#C[C@]1(CN2Cc3ccc(OC)cc3C2=O)NC(=O)NC1=O` [Compound 924] the Ki was < 5 nM. For `COc1ccc2c(c1)C(=O)N(C[C@@]1(C#Cc3cncc(-n4ccnc4C)c3)NC(=O)NC1=O)C2` [Compound 482C], the Ki was < 5 nM. `COc1ccc2c(c1)C(=O)N(C[C@@]1(C#Cc3nccs3)NC(=O)NC1=O)C2` [Compound 454] was tested, and the Ki was < 5 nM. For `COc1ccc2c(c1)C(=O)N(C[C@@]1(C#Cc3cncnc3)NC(=O)NC1=O)C2` [Compound 450], the Ki was < 5 nM. For `CNC(=O)c1ccc(C#C[C@]2(CN3Cc4ccc(OC)cc4C3=O)NC(=O)NC2=O)o1` [Compound 954], the Ki was < 5 nM. For `COc1ccc2c(c1)C(=O)N(C[C@@]1(C#Cc3cccc(C#N)c3)NC(=O)NC1=O)C2` [Compound 447], the Ki was < 5 nM. `COc1ccc2c(c1)C(=O)N(C[C@@]1(C#Cc3csc(C)c3)NC(=O)NC1=O)C2` [Compound 533] was tested, and the Ki was < 5 nM. In the case of `COc1ccc2c(c1)C(=O)N(C[C@@]1(C#Cc3ccc(C(F)(F)F)c(F)c3)NC(=O)NC1=O)C2` [Compound 436], the Ki is reported as < 5 nM. In the case of `COc1ccc2c(c1)C(=O)N(CC1(C#Cc3ccc(F)cc3F)NC(=O)NC1=O)C2` (stereo not drawn) [Compound 315A], the Ki is reported as < 5 nM. With `COc1ccc2c(c1)C(=O)N(C[C@@]1(C#Cc3cnc4[nH]c(C)nc4c3)NC(=O)NC1=O)C2` [Compound 961] the Ki was < 5 nM. For `COc1ccc2c(c1)C(=O)N(C[C@@]1(C#Cc3cc(C(F)(F)F)cc(C(F)(F)F)c3)NC(=O)NC1=O)C2` [Compound 934], the Ki was < 5 nM. For `COc1ccc2c(c1)C(=O)N(C[C@@]1(C#Cc3cncc(N4CCCC4)c3)NC(=O)NC1=O)C2` [Compound 410B], the Ki was < 5 nM. With `COc1ccc2c(c1)C(=O)N(C[C@@]1(C#Cc3cc4nc[nH]c4nc3C)NC(=O)NC1=O)C2` [Compound 962] the Ki was < 5 nM. For `CNc1nc2cccc(C#C[C@]3(CN4Cc5ccc(OC)cc5C4=O)NC(=O)NC3=O)c2s1` [Compound 507], the Ki was < 5 nM. With `COc1ccc2c(c1)C(=O)N(C[C@@]1(C#Cc3ccc(C)s3)NC(=O)NC1=O)C2` [Compound 513] the Ki was < 5 nM. `COc1ccc2c(c1)C(=O)N(C[C@@]1(C#Cc3ccc(F)c(C#N)c3)NC(=O)NC1=O)C2` [Compound 906] was tested, and the Ki was < 5 nM. For `COc1ccc2c(c1)C(=O)N(C[C@@]1(C#Cc3c[nH]c(C)n3)NC(=O)NC1=O)C2` [Compound 902], the Ki was < 5 nM.

Same assay, conditions: TACE; class letters A-D; read-out: Ki Rating
`COc1ccc2c(c1)C(=O)N(C[C@@]1(C#Cc3cnc(Cl)nc3N)NC(=O)NC1=O)C2` [Compound 1573] was tested, and the Ki was < 5 nM. With `COc1ccc2c(c1)C(=O)N(C[C@@]1(C#Cc3ccccc3Cl)NC(=O)NC1=O)C2` [Compound 1146] the Ki was < 5 nM. With `COc1ccc2c(c1)C(=O)N(C[C@@]1(C#Cc3ccc(C(C)O)cc3)NC(=O)NC1=O)C2` (stereo partly drawn) [Compound 1078] the Ki was < 5 nM. With `COc1ccc2c(c1)C(=O)N(C[C@@]1(C#Cc3cnccc3C(N)=O)NC(=O)NC1=O)C2` [Compound 1515] the Ki was < 5 nM. For `COc1ccc2c(c1)CN(C[C@@]1(C#Cc3cc(F)cc(F)c3)NC(=O)NC1=O)C2=O` [Compound 1201], the Ki was < 5 nM. With `COc1ccc2c(c1)C(=O)N(C[C@]1(C#Cc3ccc(C(=O)NC4CC4)cc3)NC(=O)NC1=O)C2` [Compound 1067] the Ki was > 100 nM. In the case of `CNC(=O)c1ccc(C#C[C@]2(CN3Cc4ccc(OC)cc4C3=O)NC(=O)NC2=O)cn1` [Compound 1517], the Ki is reported as < 5 nM. `COc1ccc2c(c1)C(=O)N(C[C@@]1(C#Cc3cccc(OC(F)F)c3)NC(=O)NC1=O)C2` [Compound 1148] was tested, and the Ki was < 5 nM. `COc1ccc2c(c1)C(=O)N(C[C@@]1(C#Cc3cnc4ccc(Br)cn34)NC(=O)NC1=O)C2` [Compound 1504] was tested, and the Ki was < 5 nM. With `COc1ccc2c(c1)C(=O)N(C[C@@]1(C#Cc3cncc(O)c3)NC(=O)NC1=O)C2` [Compound 1063] the Ki was < 5 nM. With `COc1ccc(C#C[C@]2(CN3Cc4ccc(OC)cc4C3=O)NC(=O)NC2=O)cc1` [Compound 1043] the Ki was < 5 nM. For `COc1ccc2c(c1)C(=O)N(C[C@@]1(C#Cc3ccc(C(=O)NS(C)(=O)=O)cc3)NC(=O)NC1=O)C2` [Compound 1550], the Ki was 5 to 25 nM. For `COc1ccc2c(c1)C(=O)N(C[C@@]1(C#Cc3ccc4c(c3)OCO4)NC(=O)NC1=O)C2` [Compound 1139], the Ki was < 5 nM. In the case of `COc1ccc2c(c1)C(=O)N(C[C@@]1(C#Cc3ccc(F)cc3C#N)NC(=O)NC1=O)C2` [Compound 1218], the Ki is reported as < 5 nM. With `COc1ccc2c(c1)C(=O)N(C[C@@]1(C#Cc3ccc(SC(F)(F)F)cc3)NC(=O)NC1=O)C2` [Compound 1038] the Ki was < 5 nM. `COc1ccc2c(c1)C(=O)N(C[C@@]1(C#Cc3ccc4nccnc4c3)NC(=O)NC1=O)C2` [Compound 1008] was tested, and the Ki was < 5 nM. With `COc1ccc2c(c1)C(=O)N(C[C@@]1(C#Cc3ccc4c(cnn4C(C)C)c3)NC(=O)NC1=O)C2` [Compound 1213] the Ki was < 5 nM. With `COc1ccc2c(c1)C(=O)N(C[C@@]1(C#Cc3cncnc3N)NC(=O)NC1=O)C2` [Compound 1561] the Ki was < 5 nM. `COc1ccc2c(c1)C(=O)N(C[C@@]1(C#Cc3ccc([C@H](C)N)cc3)NC(=O)NC1=O)C2` [Compound 1076] was tested, and the Ki was < 5 nM. In the case of `COc1ccc2c(c1)C(=O)N(C[C@@]1(C#Cc3ccc4[nH]ccc4c3)NC(=O)NC1=O)C2` [Compound 1129], the Ki is reported as < 5 nM. `COc1ccc2c(c1)C(=O)N(C[C@@]1(C#Cc3ccc4nn(C(C)C)cc4c3)NC(=O)NC1=O)C2` [Compound 1212] was tested, and the Ki was < 5 nM. `O=C1NC(=O)C(C#Cc2cnc3ccc(Br)cn23)(CN2Cc3ccc(OC(F)F)cc3C2=O)N1` (stereo not drawn) [Compound 1535] showed a Ki of 5 to 25 nM. For `COc1ccc2c(c1)C(=O)N(C[C@@]1(C#Cc3cccc(O)c3)NC(=O)NC1=O)C2` [Compound 1040], the Ki was < 5 nM. In the case of `COc1ccc2c(c1)C(=O)N(C[C@@]1(C#Cc3ccc4cnoc4c3)NC(=O)NC1=O)C2` [Compound 1214], the Ki is reported as < 5 nM. For `COc1ccc2c(c1)C(=O)N(C[C@@]1(C#Cc3ccc(F)c(O)c3)NC(=O)NC1=O)C2` [Compound 1150], the Ki was < 5 nM.
